Source: the kinase profiling compilation of Christmann-Franck et al. (2016)

Assays:
Assay in all cases: radiometric filter-binding kinase assay, Kinase HotSpot
Conditions in all cases: compound 0.5 µM; ATP 10 µM
NLK (human) = NLK (human) (UniProt Q9UBE8)
HIPK3 (human) = HIPK3 (human) (UniProt Q9H422)
IRAK4 (human) = IRAK4 (human) (UniProt Q9NWZ3)
ULK2 (human) = ULK2 (human) (UniProt Q8IYT8)
GSK3B (human) = GSK3B (human) (UniProt P49841)
MKNK2 (human) = MKNK2 (human) (UniProt Q9HBH9)
BRSK2 (human) = BRSK2 (human) (UniProt Q8IWQ3)
SGK2 (human) = SGK2 (human) (UniProt Q9HBY8)
PASK (human) = PASK (human) (UniProt Q96RG2)
CDK5 CDK5R1 p35 (human) = CDK5 CDK5R1 p35 (human) (UniProt Q00535+Q15078)
NTRK1 (human) = NTRK1 (human) (UniProt P04629)
PRKD1 (human) = PRKD1 (human) (UniProt Q15139)
PIM2 (human) = PIM2 (human) (UniProt Q9P1W9)
MARK4 (human) = MARK4 (human) (UniProt Q96L34)
JAK2 JH1 JH2 (human) = JAK2 JH1 JH2 (human) (UniProt O60674)
FGR (human) = FGR (human) (UniProt P09769)
CDK4 CCND1 (human) = CDK4 CCND1 (human) (UniProt P24385+P11802)
MAP3K9 (human) = MAP3K9 (human) (UniProt P80192)
MAP3K11 (human) = MAP3K11 (human) (UniProt Q16584)
ACVR1B (human) = ACVR1B (human) (UniProt P36896)
MAP4K4 (human) = MAP4K4 (human) (UniProt O95819)
PRKACA (human) = PRKACA (human) (UniProt P17612)
NEK7 (human) = NEK7 (human) (UniProt Q8TDX7)
PIM1 (human) = PIM1 (human) (UniProt P11309)
TSSK2 (human) = TSSK2 (human) (UniProt Q96PF2)
CHEK1 (human) = CHEK1 (human) (UniProt O14757)
TYRO3 (human) = TYRO3 (human) (UniProt Q06418)
NTRK2 (human) = NTRK2 (human) (UniProt Q16620)
WNK2 (human) = WNK2 (human) (UniProt Q9Y3S1)
RAF1 (human) = RAF1 (human) (UniProt P04049)
SRPK2 (human) = SRPK2 (human) (UniProt P78362)
NUAK1 (human) = NUAK1 (human) (UniProt O60285)
CAMK2D (human) = CAMK2D (human) (UniProt Q13557)
STK16 (human) = STK16 (human) (UniProt O75716)
CSNK1D (human) = CSNK1D (human) (UniProt P48730)
ADRBK2 (human) = ADRBK2 (human) (UniProt P35626)
GRK6 (human) = GRK6 (human) (UniProt P43250)
FRK (human) = FRK (human) (UniProt P42685)
CLK4 (human) = CLK4 (human) (UniProt Q9HAZ1)
JAK3 JH1 JH2 (human) = JAK3 JH1 JH2 (human) (UniProt P52333)
MAPK14 (human) = MAPK14 (human) (UniProt Q16539)
DAPK2 (human) = DAPK2 (human) (UniProt Q9UIK4)

Sequence of PRKD1 (human) (Q15139 whole entry, looked up): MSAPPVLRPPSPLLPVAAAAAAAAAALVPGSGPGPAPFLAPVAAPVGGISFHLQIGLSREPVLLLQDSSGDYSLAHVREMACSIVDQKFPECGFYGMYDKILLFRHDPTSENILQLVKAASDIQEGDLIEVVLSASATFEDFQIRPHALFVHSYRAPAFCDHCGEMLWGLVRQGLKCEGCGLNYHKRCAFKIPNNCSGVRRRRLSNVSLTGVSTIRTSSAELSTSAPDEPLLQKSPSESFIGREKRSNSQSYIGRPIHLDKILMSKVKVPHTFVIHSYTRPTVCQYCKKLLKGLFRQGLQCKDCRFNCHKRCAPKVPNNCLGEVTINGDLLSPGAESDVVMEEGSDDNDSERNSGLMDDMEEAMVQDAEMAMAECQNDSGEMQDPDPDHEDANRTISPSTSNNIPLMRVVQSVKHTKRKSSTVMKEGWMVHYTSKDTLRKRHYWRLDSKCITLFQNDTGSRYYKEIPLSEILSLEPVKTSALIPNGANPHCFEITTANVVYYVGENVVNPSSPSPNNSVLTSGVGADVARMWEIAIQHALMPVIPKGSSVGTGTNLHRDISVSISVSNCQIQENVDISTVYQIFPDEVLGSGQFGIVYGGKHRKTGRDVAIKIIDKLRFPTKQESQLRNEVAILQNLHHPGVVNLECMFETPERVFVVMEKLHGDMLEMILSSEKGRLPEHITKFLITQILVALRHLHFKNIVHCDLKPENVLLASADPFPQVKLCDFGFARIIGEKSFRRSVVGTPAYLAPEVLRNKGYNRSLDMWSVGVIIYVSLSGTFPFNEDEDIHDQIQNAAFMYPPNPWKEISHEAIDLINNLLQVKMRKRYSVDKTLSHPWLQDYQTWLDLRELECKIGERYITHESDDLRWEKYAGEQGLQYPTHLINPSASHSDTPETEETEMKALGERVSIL
Sequence of CLK4 (human) (Q9HAZ1 whole entry, looked up): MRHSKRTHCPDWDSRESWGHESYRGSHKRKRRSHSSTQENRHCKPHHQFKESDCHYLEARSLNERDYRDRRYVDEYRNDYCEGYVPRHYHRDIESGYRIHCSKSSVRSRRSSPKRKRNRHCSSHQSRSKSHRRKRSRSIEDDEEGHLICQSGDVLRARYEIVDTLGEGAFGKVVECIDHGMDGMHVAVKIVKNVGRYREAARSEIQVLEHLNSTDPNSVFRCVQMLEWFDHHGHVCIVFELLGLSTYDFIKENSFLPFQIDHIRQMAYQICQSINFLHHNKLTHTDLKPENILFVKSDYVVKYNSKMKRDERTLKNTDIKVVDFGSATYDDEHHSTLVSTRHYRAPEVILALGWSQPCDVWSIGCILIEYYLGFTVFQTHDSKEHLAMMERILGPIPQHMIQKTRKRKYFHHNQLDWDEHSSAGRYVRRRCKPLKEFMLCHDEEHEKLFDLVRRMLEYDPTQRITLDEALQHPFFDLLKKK
Sequence of SRPK2 (human) (P78362 whole entry, looked up): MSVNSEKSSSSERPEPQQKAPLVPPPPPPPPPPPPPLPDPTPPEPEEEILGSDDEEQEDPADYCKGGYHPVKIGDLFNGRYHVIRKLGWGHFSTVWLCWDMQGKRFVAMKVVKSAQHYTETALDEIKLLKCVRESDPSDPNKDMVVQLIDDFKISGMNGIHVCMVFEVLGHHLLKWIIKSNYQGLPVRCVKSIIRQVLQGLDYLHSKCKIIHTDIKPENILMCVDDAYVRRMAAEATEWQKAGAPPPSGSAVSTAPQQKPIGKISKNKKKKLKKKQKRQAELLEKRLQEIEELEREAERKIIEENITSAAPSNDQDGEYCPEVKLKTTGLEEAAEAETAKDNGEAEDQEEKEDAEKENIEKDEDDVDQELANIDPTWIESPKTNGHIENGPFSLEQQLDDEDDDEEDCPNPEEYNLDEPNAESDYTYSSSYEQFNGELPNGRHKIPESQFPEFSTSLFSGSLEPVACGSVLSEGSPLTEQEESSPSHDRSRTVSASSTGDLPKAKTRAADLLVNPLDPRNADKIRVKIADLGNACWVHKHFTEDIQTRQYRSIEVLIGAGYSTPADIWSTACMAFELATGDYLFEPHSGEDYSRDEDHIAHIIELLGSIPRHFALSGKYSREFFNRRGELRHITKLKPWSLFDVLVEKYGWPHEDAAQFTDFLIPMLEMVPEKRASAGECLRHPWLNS
Sequence of PASK (human) (Q96RG2 whole entry, looked up): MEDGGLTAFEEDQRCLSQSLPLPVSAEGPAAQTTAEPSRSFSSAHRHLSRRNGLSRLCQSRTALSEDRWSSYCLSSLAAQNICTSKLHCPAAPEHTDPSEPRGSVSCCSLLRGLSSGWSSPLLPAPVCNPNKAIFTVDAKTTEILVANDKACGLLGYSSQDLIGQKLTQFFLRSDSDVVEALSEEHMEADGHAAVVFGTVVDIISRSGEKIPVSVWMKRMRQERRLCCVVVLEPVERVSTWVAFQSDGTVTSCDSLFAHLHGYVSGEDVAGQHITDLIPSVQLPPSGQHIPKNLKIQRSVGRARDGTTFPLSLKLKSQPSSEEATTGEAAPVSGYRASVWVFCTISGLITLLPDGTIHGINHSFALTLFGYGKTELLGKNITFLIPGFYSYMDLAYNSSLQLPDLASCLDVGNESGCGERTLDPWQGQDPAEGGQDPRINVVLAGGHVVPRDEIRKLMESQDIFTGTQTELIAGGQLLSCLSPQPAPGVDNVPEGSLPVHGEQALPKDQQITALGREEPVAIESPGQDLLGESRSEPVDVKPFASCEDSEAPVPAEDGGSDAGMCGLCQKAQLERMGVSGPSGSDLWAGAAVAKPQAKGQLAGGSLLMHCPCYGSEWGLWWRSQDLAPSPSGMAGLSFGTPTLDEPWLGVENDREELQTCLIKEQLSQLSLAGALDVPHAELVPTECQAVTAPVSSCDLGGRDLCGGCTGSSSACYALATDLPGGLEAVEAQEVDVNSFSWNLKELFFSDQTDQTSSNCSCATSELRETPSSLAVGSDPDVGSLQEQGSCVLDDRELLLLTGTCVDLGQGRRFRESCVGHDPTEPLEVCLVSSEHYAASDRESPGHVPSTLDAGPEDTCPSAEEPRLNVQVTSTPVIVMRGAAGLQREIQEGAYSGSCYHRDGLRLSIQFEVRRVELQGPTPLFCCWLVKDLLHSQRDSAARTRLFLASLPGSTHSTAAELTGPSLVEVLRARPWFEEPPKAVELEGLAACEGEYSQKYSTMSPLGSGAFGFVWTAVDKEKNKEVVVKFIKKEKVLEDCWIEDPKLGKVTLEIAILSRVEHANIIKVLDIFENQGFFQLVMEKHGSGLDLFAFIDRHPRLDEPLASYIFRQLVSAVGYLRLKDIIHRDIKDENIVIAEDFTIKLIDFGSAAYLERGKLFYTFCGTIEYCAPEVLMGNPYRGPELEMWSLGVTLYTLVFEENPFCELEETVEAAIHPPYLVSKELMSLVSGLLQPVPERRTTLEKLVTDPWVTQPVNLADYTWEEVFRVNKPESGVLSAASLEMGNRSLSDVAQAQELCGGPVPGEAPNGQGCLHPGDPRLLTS
Sequence of MARK4 (human) (Q96L34 whole entry, looked up): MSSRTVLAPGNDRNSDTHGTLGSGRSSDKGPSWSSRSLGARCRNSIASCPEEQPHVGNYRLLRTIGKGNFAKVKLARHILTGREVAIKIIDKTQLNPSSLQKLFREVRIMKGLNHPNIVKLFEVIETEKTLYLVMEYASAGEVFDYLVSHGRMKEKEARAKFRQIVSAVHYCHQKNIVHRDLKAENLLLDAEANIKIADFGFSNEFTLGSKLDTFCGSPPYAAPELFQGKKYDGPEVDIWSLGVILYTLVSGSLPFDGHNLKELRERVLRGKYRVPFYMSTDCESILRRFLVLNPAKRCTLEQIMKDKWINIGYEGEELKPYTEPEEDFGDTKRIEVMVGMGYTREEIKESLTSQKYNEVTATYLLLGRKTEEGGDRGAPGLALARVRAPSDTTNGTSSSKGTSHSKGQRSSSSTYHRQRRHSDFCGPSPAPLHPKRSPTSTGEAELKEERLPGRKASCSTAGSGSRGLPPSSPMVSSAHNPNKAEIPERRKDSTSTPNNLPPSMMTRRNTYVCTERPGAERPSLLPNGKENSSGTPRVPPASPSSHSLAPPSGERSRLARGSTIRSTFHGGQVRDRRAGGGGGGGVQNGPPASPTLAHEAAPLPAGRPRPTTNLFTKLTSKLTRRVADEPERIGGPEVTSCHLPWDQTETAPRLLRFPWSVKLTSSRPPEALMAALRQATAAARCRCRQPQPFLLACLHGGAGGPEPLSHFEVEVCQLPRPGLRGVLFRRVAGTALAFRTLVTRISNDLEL
Sequence of BRSK2 (human) (Q8IWQ3 whole entry, looked up): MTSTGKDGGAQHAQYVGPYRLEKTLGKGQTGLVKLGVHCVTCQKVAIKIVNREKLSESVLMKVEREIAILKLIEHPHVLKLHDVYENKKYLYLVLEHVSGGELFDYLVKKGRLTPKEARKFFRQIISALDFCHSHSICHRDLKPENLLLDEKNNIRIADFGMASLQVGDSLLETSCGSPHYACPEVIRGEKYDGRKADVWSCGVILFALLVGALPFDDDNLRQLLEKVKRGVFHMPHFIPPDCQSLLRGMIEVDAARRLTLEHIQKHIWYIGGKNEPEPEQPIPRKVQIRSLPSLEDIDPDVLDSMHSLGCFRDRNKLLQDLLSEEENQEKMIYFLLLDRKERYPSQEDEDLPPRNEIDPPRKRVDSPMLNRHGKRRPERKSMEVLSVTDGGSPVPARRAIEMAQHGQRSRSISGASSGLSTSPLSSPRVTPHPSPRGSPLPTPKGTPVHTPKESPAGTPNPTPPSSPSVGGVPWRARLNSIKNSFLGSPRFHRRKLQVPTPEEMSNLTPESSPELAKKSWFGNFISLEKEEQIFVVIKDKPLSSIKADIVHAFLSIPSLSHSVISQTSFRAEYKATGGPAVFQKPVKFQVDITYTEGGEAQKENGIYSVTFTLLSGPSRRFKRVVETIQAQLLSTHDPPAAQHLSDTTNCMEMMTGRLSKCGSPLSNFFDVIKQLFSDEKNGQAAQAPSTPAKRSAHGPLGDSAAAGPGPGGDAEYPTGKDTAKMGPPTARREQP

## Cn1cc(/C=C2\C(=O)Nc3ccc(S(N)(=O)=O)cc32)c2ccccc21
NLK (human)
  residual activity: 90.4%
HIPK3 (human)
  residual activity: 105%
IRAK4 (human)
  residual activity: 2.98%
ULK2 (human)
  residual activity: 72.3%
GSK3B (human)
  residual activity: 98.4%
MKNK2 (human)
  residual activity: 71.1%
BRSK2 (human)
  residual activity: 65.5%
SGK2 (human)
  residual activity: 80.7%
PASK (human)
  residual activity: 84.8%
CDK5 CDK5R1 p35 (human)
  residual activity: 55.8%
NTRK1 (human)
  residual activity: 6.15%
PRKD1 (human)
  residual activity: 80%
PIM2 (human)
  residual activity: 101%
MARK4 (human)
  residual activity: 40.6%
JAK2 JH1 JH2 (human)
  residual activity: 58.4%
FGR (human)
  residual activity: 28.4%
CDK4 CCND1 (human)
  residual activity: 106%
MAP3K9 (human)
  residual activity: 28.1%
MAP3K11 (human)
  residual activity: 9.89%
ACVR1B (human)
  residual activity: 98.4%
MAP4K4 (human)
  residual activity: 22.5%
PRKACA (human)
  residual activity: 104%
NEK7 (human)
  residual activity: 101%
PIM1 (human)
  residual activity: 96.5%
TSSK2 (human)
  residual activity: 84%
CHEK1 (human)
  residual activity: 19.5%
TYRO3 (human)
  residual activity: 90.5%
NTRK2 (human)
  residual activity: 4.83%
WNK2 (human)
  residual activity: 97.7%
RAF1 (human)
  residual activity: 102%
SRPK2 (human)
  residual activity: 51.4%
NUAK1 (human)
  residual activity: 5.88%
CAMK2D (human)
  residual activity: 66.8%
STK16 (human)
  residual activity: 78.7%
CSNK1D (human)
  residual activity: 102%
ADRBK2 (human)
  residual activity: 111%
GRK6 (human)
  residual activity: 47.2%
FRK (human)
  residual activity: 97.1%
CLK4 (human)
  residual activity: 42.6%
JAK3 JH1 JH2 (human)
  residual activity: 43.7%
MAPK14 (human)
  residual activity: 123%

## O=S(=O)(NCCNC/C=C/c1ccc(Br)cc1)c1cccc2cnccc12
NLK (human)
  residual activity: 94.9%
HIPK3 (human)
  residual activity: 81.7%
IRAK4 (human)
  residual activity: 110%
ULK2 (human)
  residual activity: 98.9%
GSK3B (human)
  residual activity: 83.5%
MKNK2 (human)
  residual activity: 78.7%
BRSK2 (human)
  residual activity: 92.4%
SGK2 (human)
  residual activity: 84.2%
PASK (human)
  residual activity: 94.5%
NTRK1 (human)
  residual activity: 84.9%
PRKD1 (human)
  residual activity: 98.7%
PIM2 (human)
  residual activity: 104%
MARK4 (human)
  residual activity: 94.3%
JAK2 JH1 JH2 (human)
  residual activity: 109%
FGR (human)
  residual activity: 106%
CDK4 CCND1 (human)
  residual activity: 93.9%
MAP3K9 (human)
  residual activity: 99.6%
MAP3K11 (human)
  residual activity: 95.6%
MAP4K4 (human)
  residual activity: 43.8%
PRKACA (human)
  residual activity: 10.5%
NEK7 (human)
  residual activity: 96.9%
PIM1 (human)
  residual activity: 90.1%
TSSK2 (human)
  residual activity: 104%
CHEK1 (human)
  residual activity: 90.8%
TYRO3 (human)
  residual activity: 93.9%
NTRK2 (human)
  residual activity: 95.1%
WNK2 (human)
  residual activity: 99.4%
RAF1 (human)
  residual activity: 96.4%
SRPK2 (human)
  residual activity: 88.3%
DAPK2 (human)
  residual activity: 72.1%
NUAK1 (human)
  residual activity: 32.8%
CAMK2D (human)
  residual activity: 97.1%
STK16 (human)
  residual activity: 94.4%
ADRBK2 (human)
  residual activity: 101%
GRK6 (human)
  residual activity: 93.5%
CLK4 (human)
  residual activity: 119%
JAK3 JH1 JH2 (human)
  residual activity: 122%
MAPK14 (human)
  residual activity: 105%

## CCCCc1c(-c2ccc(O)cc2)[nH]c2nccnc12
NLK (human)
  residual activity: 90.3%
HIPK3 (human)
  residual activity: 100%
IRAK4 (human)
  residual activity: 159%
ULK2 (human)
  residual activity: 112%
GSK3B (human)
  residual activity: 75.4%
MKNK2 (human)
  residual activity: 107%
BRSK2 (human)
  residual activity: 87.2%
SGK2 (human)
  residual activity: 99.4%
PASK (human)
  residual activity: 99.5%
NTRK1 (human)
  residual activity: 99.6%
PRKD1 (human)
  residual activity: 77.7%
PIM2 (human)
  residual activity: 121%
MARK4 (human)
  residual activity: 84.6%
JAK2 JH1 JH2 (human)
  residual activity: 77.8%
FGR (human)
  residual activity: 63%
CDK4 CCND1 (human)
  residual activity: 66.4%
MAP3K9 (human)
  residual activity: 37.3%
MAP3K11 (human)
  residual activity: 32.5%
ACVR1B (human)
  residual activity: 117%
MAP4K4 (human)
  residual activity: 60.9%
PRKACA (human)
  residual activity: 89.7%
NEK7 (human)
  residual activity: 111%
PIM1 (human)
  residual activity: 83.8%
TSSK2 (human)
  residual activity: 96.7%
CHEK1 (human)
  residual activity: 92.9%
TYRO3 (human)
  residual activity: 99.6%
NTRK2 (human)
  residual activity: 73.7%
WNK2 (human)
  residual activity: 117%
RAF1 (human)
  residual activity: 106%
SRPK2 (human)
  residual activity: 110%
DAPK2 (human)
  residual activity: 101%
NUAK1 (human)
  residual activity: 19.1%
CAMK2D (human)
  residual activity: 87.3%
STK16 (human)
  residual activity: 55.4%
CSNK1D (human)
  residual activity: 93.7%
ADRBK2 (human)
  residual activity: 96.2%
GRK6 (human)
  residual activity: 83.5%
FRK (human)
  residual activity: 87.6%
CLK4 (human)
  residual activity: 64.3%
JAK3 JH1 JH2 (human)
  residual activity: 92.2%
MAPK14 (human)
  residual activity: 102%

## CCc1nc(-c2ccc(OC)cc2)[nH]c1-c1ccncc1
NLK (human)
  residual activity: 103%
HIPK3 (human)
  residual activity: 106%
IRAK4 (human)
  residual activity: 111%
ULK2 (human)
  residual activity: 98%
GSK3B (human)
  residual activity: 108%
MKNK2 (human)
  residual activity: 88.2%
BRSK2 (human)
  residual activity: 105%
SGK2 (human)
  residual activity: 103%
PASK (human)
  residual activity: 96.3%
CDK5 CDK5R1 p35 (human)
  residual activity: 100%
NTRK1 (human)
  residual activity: 106%
PRKD1 (human)
  residual activity: 100%
PIM2 (human)
  residual activity: 105%
MARK4 (human)
  residual activity: 96.4%
JAK2 JH1 JH2 (human)
  residual activity: 96.7%
FGR (human)
  residual activity: 97.2%
CDK4 CCND1 (human)
  residual activity: 107%
MAP3K9 (human)
  residual activity: 88.1%
MAP3K11 (human)
  residual activity: 96.7%
ACVR1B (human)
  residual activity: 86.5%
MAP4K4 (human)
  residual activity: 91.9%
PRKACA (human)
  residual activity: 100%
NEK7 (human)
  residual activity: 99.8%
PIM1 (human)
  residual activity: 104%
TSSK2 (human)
  residual activity: 98.7%
CHEK1 (human)
  residual activity: 98.6%
TYRO3 (human)
  residual activity: 97.9%
NTRK2 (human)
  residual activity: 105%
WNK2 (human)
  residual activity: 104%
RAF1 (human)
  residual activity: 93.4%
SRPK2 (human)
  residual activity: 101%
DAPK2 (human)
  residual activity: 104%
NUAK1 (human)
  residual activity: 92.8%
CAMK2D (human)
  residual activity: 96.4%
STK16 (human)
  residual activity: 108%
CSNK1D (human)
  residual activity: 95.1%
ADRBK2 (human)
  residual activity: 98.4%
FRK (human)
  residual activity: 101%
CLK4 (human)
  residual activity: 99.3%
JAK3 JH1 JH2 (human)
  residual activity: 96.1%
MAPK14 (human)
  residual activity: 113%

## Nc1ncnc2c1cnn2-c1ccccc1
NLK (human)
  residual activity: 92.5%
HIPK3 (human)
  residual activity: 97.6%
IRAK4 (human)
  residual activity: 89.4%
ULK2 (human)
  residual activity: 95.1%
GSK3B (human)
  residual activity: 91.6%
MKNK2 (human)
  residual activity: 72.7%
BRSK2 (human)
  residual activity: 95.3%
SGK2 (human)
  residual activity: 98.4%
PASK (human)
  residual activity: 96.8%
CDK5 CDK5R1 p35 (human)
  residual activity: 99.2%
NTRK1 (human)
  residual activity: 96.1%
PRKD1 (human)
  residual activity: 98.1%
PIM2 (human)
  residual activity: 98.2%
MARK4 (human)
  residual activity: 89.7%
JAK2 JH1 JH2 (human)
  residual activity: 91.6%
FGR (human)
  residual activity: 93.8%
CDK4 CCND1 (human)
  residual activity: 103%
MAP3K9 (human)
  residual activity: 106%
MAP3K11 (human)
  residual activity: 96%
ACVR1B (human)
  residual activity: 99.4%
MAP4K4 (human)
  residual activity: 94.4%
NEK7 (human)
  residual activity: 106%
PIM1 (human)
  residual activity: 99.4%
TSSK2 (human)
  residual activity: 106%
CHEK1 (human)
  residual activity: 92.5%
TYRO3 (human)
  residual activity: 102%
NTRK2 (human)
  residual activity: 88.7%
WNK2 (human)
  residual activity: 114%
RAF1 (human)
  residual activity: 95.4%
SRPK2 (human)
  residual activity: 104%
DAPK2 (human)
  residual activity: 96.7%
NUAK1 (human)
  residual activity: 93.2%
CAMK2D (human)
  residual activity: 94.7%
STK16 (human)
  residual activity: 94.3%
CSNK1D (human)
  residual activity: 79.5%
ADRBK2 (human)
  residual activity: 105%
GRK6 (human)
  residual activity: 92.3%
FRK (human)
  residual activity: 101%
CLK4 (human)
  residual activity: 76.7%
JAK3 JH1 JH2 (human)
  residual activity: 97.4%
MAPK14 (human)
  residual activity: 89.2%
